These results are taken from patent publication US9133225B2, “Dual targeting anticancer agents” (priority 2013, dated 2015).

By IC50 is commonly meant the point on the concentration scale where inhibition reaches its midpoint.

Data set [1] has as its system A549 cells. Put plainly: MTT cytotoxicity assay, A549. The text has this: (§1) (a) Dulbecco's Modified Eagle Medium (DMEM), Dulbecco's phosphate buffered saline (DPBS), fetal bovine serum (FBS) and 0.25% trypsin/EDTA solutions were purchased from Cellgro (Manassas, Va.). Penicillin-streptomycin solutions were purchased from Mediatech (Manassas, Va.). (b) HeLa (CCL-2TM) cells, A549, A2870, A2870/CP70, MCF-7, PC-3, and MRC-5 cells were purchased from American Type Culture Collection (ATCC, Manassas, Va., USA). (c) HCT116 cells were kindly donated by Laura Trudel (MIT). HeLa, A549, MCF-7, and MRC-5 cells were cultured using DMEM supplemented with 10% FBS and 1% penicillin-streptomycin. A2870, A2870/CP70, and PC-3 cells were cultured in RPMI supplemented with 10% FBS and 1% penicillin-streptomycin. HCT116 cells were cultured in McCoy's supplemented with 10% FBS and 1% penicillin-streptomycin. All cell-culture experiments were performed in the aforementioned media in an incubator operating at 37° C. and in the presence of a humidified atmosphere containing 5.0% CO2. Cells were harvested using a 0.25% trypsin/EDTA solution.
(§2) The cytotoxicity of the compounds was assessed by means of the MTT assay (MTT=3-(4,5-dimethyl-2-thiazolyl)-2,5-diphenyl-2H-tetrazolium bromide). Typically, on day one, ˜1×10^3 cells were seeded into 96-well plates in 100 μL media per well. […] The optical density for each well at 550 nm was measured with a microplate reader.
(In general: Formazan colour is commonly taken as a measure of viable cells.)

Data set [2] deals with HeLa cells. The data set is described as follows: MTT cytotoxicity assay, HeLa.
Source text: as §1, §2

The test system of data set [3] is A2780 ovarian carcinoma cells. Put plainly: MTT cytotoxicity assay, A2780.
Source text: as §1, §2

Data set [4] concerns A2780/CP70 cells (CisPt resistant). Put plainly: MTT cytotoxicity assay, A2780/CP70.
Source text: as §1, §2

For data set [5], the system named is PC-3 cells. The data set is described as follows: MTT cytotoxicity assay, PC-3.
Source text: as §1
(§3) The cytotoxicity of the compounds was assessed by means of the MTT assay (MTT=3-(4,5-dimethyl-2-thiazolyl)-2,5-diphenyl-2H-tetrazolium bromide). Typically, on day one, ˜1×10^3 cells were seeded into 96-well plates in 100 μL media per well. The last row of the plate was left empty as a control for background absorption. The cells were allowed to grow for 24 h in the incubator at 37° C. On day two, a series of drug dilutions in growth media were prepared immediately prior to cell treatment. The media in the wells of the 96 plates were replaced with 100 μL of growth media containing appropriate drug concentrations. The cells were treated for 48 h at 37° C. in the incubator. On day four, a stock solution of MTT (5 mg/mL in PBS buffer) was diluted with media so that, when 100 μL of the media was added to each well, 10 μL of MTT stock was applied. […] The optical density for each well at 550 nm was measured with a microplate reader.

For data set [6], the system named is HCT116 cells. The data set is described as follows: MTT cytotoxicity assay, HCT116.
Source text: as §1, §3

The test system of data set [7] is MCF-7 cells. The data set is described as follows: MTT cytotoxicity assay, MCF-7.
Source text: as §1, §3

The subject of data set [8] is MRC-5 non-tumorigenic lung fibroblast cells. Put plainly: in vitro.
Source text: as §1
(§4) The cytotoxicity of the compounds was assessed by means of the MTT assay (MTT=3-(4,5-dimethyl-2-thiazolyl)-2,5-diphenyl-2H-tetrazolium bromide). Typically, on day one, ˜1×10^3 cells were seeded into 96-well plates in 100 μL media per well. The last row of the plate was left empty as a control for background absorption. The cells were allowed to grow for 24 h in the incubator at 37° C. On day two, a series of drug dilutions in growth media were prepared immediately prior to cell treatment. The media in the wells of the 96 plates were replaced with 100 μL of growth media containing appropriate drug concentrations. The cells were treated for 48 h at 37° C. in the incubator. On day four, a stock solution of MTT (5 mg/mL in PBS buffer) was diluted with media so that, when 100 μL of the media was added to each well, 10 μL of MTT stock was applied. The cells were incubated for 2 h and then all the media was replaced with 100 μL of DMSO to dissolve the purple MTT-formazan crystals. The optical density for each well at 550 nm was measured with a microplate reader.

Data set [9] deals with T1, Bcl-xL-Bax interactions (Homo sapiens, UniProt Q07817).
T1 construct: endogenous in cells; host or cells: A549
Put plainly: Co-immunoprecipitation of Bcl-xL, probed for Bax. In kind it is cell-based. The note with it: A549 cells, respective IC50 values, 48 h. How it is done:
(§5) α-TOS is known to disrupt Bcl-xL-Bax interactions, activate Bax, and thus mediate mitochondrial centered apoptotic cell death. Co-immunoprecipitation studies were carried out to determine whether the Pt(IV)-α-TOS conjugates could behave in a similar manner. […] Additional immunoblotting studies were carried to determine the effect of Pt(IV)(α-TOS)(OEt) treatment on transcription. […] Overall Pt(IV)(α-TOS)(OEt) was able to (1) downregulate Bcl-xL expression and (2) inhibit the interaction of Bcl-xL with Bax, a prerequisite for mitochondrial dysfunction. The former is inherent to cisplatin but not α-TOS, and the latter was inherent to α-TOS but not cisplatin.
A549 cells (5×10^5 cells) were incubated with test compound for 48 h at 37° C. […] The resultant cell lysate was treated with protein A-agarose bead slurry (50 μL) and centrifuged to remove proteins that bind non-specifically. Anti Bcl-XL antibody (Cell Signalling Technology) was added to the lysate and incubated for 2 h at room temperature. Protein A-agarose bead slurry (50 μL) was added and the mixture was incubated at 4° C. overnight. Centrifugation allowed separation of the immunocomplex, which was washed with cold RIPA buffer (3×500 μL). The immunocomplex was then suspended in SDS-PAGE loading buffer (50 μL) and incubated at 95° C. for 10 min. The solution containing the immunocomplex was isolated by centrifugation and then analysed for Bax content using the immunoblotting analysis protocol described above.

The nature of data set [10]: in vitro. The note with it: human.
Source text: as §1, §4

Data set [11] has as its system Bcl-xL. Put plainly: Immunoblotting analysis of Bcl-xL expression. The data set is classed as cell-based. The note with it: A549 cells. On the procedure:
as §5
A549 cells (5×10^5 cells) were incubated with test compound for 48 h at 37° C. Cells were washed with PBS, scraped into SDS-PAGE loading buffer (64 mM Tris-HCl (pH6.8)/9.6% glycerol/2% SDS/5% β-mercaptoethanol/0.01% Bromophenol Blue) and incubated at 95° C. for 10 min. Whole cell lysates were resolved by 4-20% sodium dodecylsulphate polyacylamide gel electrophoresis (SDS-PAGE; 200 V for 1 h) followed by electro transfer to polyvinylidene difluoride membrane, PVDF (350 mA for 1 h). Membranes were blocked in 5% (w/v) non-fat milk in PBST (PBS/0.1% Tween 20) and incubated with the appropriate primary antibodies (Cell Signalling Technology and Santa Cruz). After incubation with horseradish peroxidase-conjugated secondary antibodies (Cell Signalling Technology), immune complexes were detected with the ECL detection reagent (BioRad) and analysed using an Alpha Innotech ChemiImager™ 5500 fitted with a chemiluminescence filter.
On the technique in general: Immunoblotting shows a protein as a band on a membrane.

For data set [12], the system named is A2780 ovarian cancer cells. The data set is described as follows: PI-annexin-V dual staining apoptosis assay. In kind it is cell-based. The note with it: 10 μM for 48 hours.
In data set [13] the test system is A549 cells. The data set is described as follows: JC-1 mitochondrial membrane potential assay. In kind it is cell-based. The note with it: cisplatin or Pt(IV)(α-TOS)(OEt) at 20 μM, 4 hours. On the procedure:
To investigate the effect of Pt(IV)(α-TOS)(OEt) on mitochondria, changes in the mitochondrial membrane potential were assessed by the JC-1 assay. JC-1 (5,5′,6,6′-tetrachloro-1,1′3,3′-tetraethylbenzimidazolylcarbocyanine iodide) is a positively charged lipophilic dye, which accumulates in the mitochondria of healthy cells as red-emitting aggregates. When the mitochondrial membrane is compromised, JC-1 de-aggregates into monomeric forms that emit green fluorescence. […] These findings were confirmed using flow cytometry. A large population of untreated and Pt(IV)(α-TOS)(OEt)-treated A549 cells were examined.
In order to monitor the cell cycle, flow cytometry studies were carried out. A549 cells were incubated with and without the test compounds for 24 and 48 h at 37° C. Cells were harvested from adherent cultures by trypsinization and combined with all detached cells from the incubation medium to assess total cell viability. Following centrifugation at 1000 rpm for 5 min, cells were washed with PBS and then fixed with 70% ethanol in PBS. Fixed cells were collected by centrifugation at 2500 rpm for 3 min, washed with PBS and centrifuged as before. Cellular pellets were re-suspended in 50 μg/mL propidium iodide (Sigma) in PBS for nucleic acids staining and treated with 100 μg/mL RNaseA (Sigma). DNA content was measured on a FACSCalibur-HTS flow cytometer (BD Biosciences) using laser excitation at 488 nm and 20,000 events per sample were acquired. Cell cycle profiles were analysed using the ModFit software. For the apoptosis experiments, the Annexin V-FITC Early Apoptosis Detection Kit (Cell Signaling Technology) was used. […] The samples were kept on ice prior to being read on the FACSCalibur-HTS flow cytometer (BD Biosciences) (20,000 events per sample were acquired). Cell populations were analysed using the FlowJo software (Tree Star). […] The cells were incubated for 30 min, harvested, and analysed by using the FACSCalibur-HTS flow cytometer (BD Biosciences) (20,000 events per sample were acquired). […] Cell populations were analysed using the FlowJo software (Tree Star).

Data set [14] concerns all cell lines. The data set is described as follows: MTT cytotoxicity assay, across the cell lines. The data set is classed as cell-based. The note with it: all cell lines; MTT; read-out: IC50 against all cell lines.
Source text: as §1, §2

T1 sequence (Q07817 whole entry): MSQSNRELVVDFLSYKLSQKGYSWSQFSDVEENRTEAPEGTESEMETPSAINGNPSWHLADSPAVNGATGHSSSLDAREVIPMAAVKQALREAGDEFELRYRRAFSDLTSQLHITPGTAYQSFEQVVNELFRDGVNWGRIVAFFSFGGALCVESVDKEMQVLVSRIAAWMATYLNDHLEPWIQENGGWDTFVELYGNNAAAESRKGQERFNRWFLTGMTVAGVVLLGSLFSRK

Regarding `Cc1c(C)c2c(c(C)c1OC(=O)CCC(=O)O)CC[C@@](C)(CCC[C@H](C)CCC[C@H](C)CCCC(C)C)O2` [α-TOS, α-tocopherol succinate, reference compound], the IC50 in data set [1] is 26.9 µM; in data set [2], 25.1 µM; in data set [3], 13.8 µM; in [4], 21.7 µM; in data set [5], 37 µM; in data set [6], 31.2 µM. For the same compound, the IC50 was 40.5 µM in [7] and 28.5 µM in data set [8]. In [9], the “Bcl-xL-Bax interaction (Bax associated to the Bcl-xL immunoprecipitate)” value (“Bcl-xL-Bax interaction” below) is listed as “markedly lower than the untreated control”.

Take `Cc1c(C)c2c(c(C)c1OC(=O)CCC(=O)[O][Pt]([NH2])([NH2])([Cl])([Cl])[O]C(=O)CCC(=O)Oc1c(C)c(C)c3c(c1C)CCC(C)(CCCC(C)CCCC(C)CCCC(C)C)O3)CCC(C)(CCCC(C)CCCC(C)CCCC(C)C)O2` (stereo not drawn) [Pt(IV)(α-TOS)2]: the midpoint of inhibition in data set [10], the IC50 at 48 h, lay at 80.5 µM. Also, the “Bcl-xL-Bax interaction” value in [9] was “less affected”. For the same compound, the Bcl-xL expression entry in data set [11] is “A similar trend was observed”.

As for `N.N.[Cl][Pt][Cl]` [cisplatin, reference compound], the “Bcl-xL-Bax interaction” value in data set [9] is given as “less affected”. Also, the Bcl-xL expression result in data set [11] was “A similar trend was observed”. Also, the “cells displaying apoptotic properties” value in data set [12] was found to be 10%.

Take `N#CC(C#N)=NNc1cccc(Cl)c1` [CCCP, carbonyl cyanide m-chlorophenyl hydrazone, reference compound]: the “JC-1 fluorescence (mitochondrial membrane disruption), microscopy” value in data set [13] was “increased green fluorescence and diminished red fluorescence”.

Regarding `CC(=O)[O][Pt]([NH2])([NH2])([Cl])([Cl])[O]C(C)=O` [Pt(IV)(OAc)2], the IC50 in data set [5], in [6], in data set [7], in data set [8] and in [14] was > 100 µM each time. Moreover, the “Bcl-xL-Bax interaction” value in data set [9] was “less affected”. Moreover, the Bcl-xL expression result in data set [11] was “A similar trend was observed”.
